The source made the active and inactive calls. The calls are words filed in the database; no cut-off is given here.

The species named for one assay is Cavia porcellus. In words: Effective dose for guinea pig ileum contractions. It is filed as functional. Conditions: for EC50: read-out: ED50 (the source's name).
In assay [1] the target is Muscarinic acetylcholine receptor (Homo sapiens) (UniProt P20309+P08173+P11229+P08172+P08912). In words: Tested in vitro for agonistic effect on Muscarinic acetylcholine receptor of guinea pig ileum; IA = Inactive. It is filed as functional, tissue-based. Conditions: Cavia porcellus, target entry is the homologue from another species.

With `CCN1C(=O)OCC1Cc1cn(Cc2ccccc2)cn1` (stereo not given), in the assay listed under Cavia porcellus, the ED50 result was “inactive”.

Regarding `CCN1C(=O)OCC1Cc1cn(Cc2ccccc2)c[n+]1C` (stereo not given), in assay [1], the ED50 result was “inactive”. `CCN1C(=O)OCC1Cc1c[nH]cn1` (stereo not given): the EC50 in the assay filed under Cavia porcellus stood at 180 µM. With `CCN1C(=O)OCC1Cc1cncn1C` (stereo not given), in the assay listed under Cavia porcellus, the EC50 was 1 µM.

Take `CCN1C(=O)OCC1Cc1cn(C)cn1` (stereo not given): the EC50 in the assay listed under Cavia porcellus was determined as 14 µM.

The record behind these values is ChEMBL document CHEMBL1124642 (1989).
